Laboratory results: paper PMC5652740, “Inhibition of HIV-1 infection in humanized mice and metabolic stability of protein phosphatase-1-targeting small molecule 1E7-03” (Oncotarget, 2017)

How the values were obtained:
HIV-1 env and gag mRNA = HIV-1 env and gag mRNA expression by real-time RT-PCR in infected CEM T cells; type: cell-based; settings: 10 μM 1E7-03, DP1, DP3; 5 μM AZT, 3TC; in words
Experimental: For quantitative analysis of HIV-1 RNA, CEM T cells were infected with HIV-1-LUC-G virus. Cells were treated with 10 μM 1E7-03, 10 μM DP1, 10 μM DP3, 5 μM AZT or 5 μM 3TC and control cells were untreated or treated with DMSO. Total RNA was isolated using Trizol Reagent (Invitrogen, Carlsbad, CA) according to the manufacturer's protocol. Total RNA (100 ng) was reverse transcribed to cDNA using Superscript™ RT-PCR kit (Invitrogen, Carlsbad, CA). Hexamers and oligo-dT were used as primers. For real-time PCR analysis, cDNA was amplified using Roche LightCycler 480 (Roche Diagnostics) and SYBR Green1 Master mix (Roche Diagnostics). PCR was run for 45 cycles and each cycle included denaturation at 95°C for 10 seconds, annealing at 60°C for 10 seconds, and extension at 72°C for 10 seconds. Quantification of env and gag was carried using 18S RNA as a normalization standard. Quantification of housekeeping genes, β-actin and RSP13 was carried relative to 18S RNA. Mean Cp values were determined and ΔΔCt method was used to calculate relative expression levels. Unpaired t-test was used to test statistical significance.
The following primer sequences were used: env, forward - […], reverse-[…]; gag, forward- […], reverse- […]; β-actin, forward- […], reverse-[…]; RSP13, forward- […], reverse- […]; and 18SrRNA, forward- […], reverse- […].

[1] = Pharmacokinetic analysis in mice after i.p. injection; type: in vivo; settings: male, BALB/cJ, ip, mouse plasma after i.p. 100 mg/kg DP1-07; for AUC(0-t) / MRT last / half-life / Tmax: parent and products DP1-07P1, DP1-07P2; for Cmax: parent and products DP1-07P1, DP1-07P2 (quantified with DP1 and DP3 calibration curves); for Tmax: mouse, plasma, 100 mg/kg
Experimental: The animal facilities and protocols were approved by Howard University Institutional Animal Care and Use Committee (IACUC). All experimental procedures were in accordance with the NIH Guidelines for the Care and Use of Laboratory Animals. BALB/cJ male mice (8 weeks old, 25–30 g) were purchased from Jackson Laboratory (Bar Harbor, ME, USA) and housed under pathogen-free conditions in HEPA-filtered cages and kept on a 12 h light/dark cycle. Compounds were administered to mice via intraperitoneal (i.p.) injection with maximum achievable doses of 30 mg/kg 1E7-03 (100 μl injection of 8 mM 1E7-03 in 80% DMSO/20% saline) and 100 mg/kg DP1-07 (100 μl injection of 100 mM DP1-07 in 40% propylene glycol/10% DMSO/50% saline). Blood samples were collected at different time points (15 min, 30 min, 1 hr, 3 hr, 6 hrs and 24 hrs) for each group (n=3 mice per group). For each sample, 20 μl of plasma was mixed with 80 μl cold acetone, and centrifuged at 13,000 rpm for 5 min. The supernatant was transferred to a clean test tube and dried in a SpeedVac concentrator. The residue was re-constituted in 50 μl of acetonitrile for LC-MS analysis. Calibration curves were prepared by spiking 1E7-03, DP1, DP3 and DP1-07 into the drug-free mouse plasma and subjected to similar sample extraction procedures. The plasma concentration–time profile of each analyte was constructed and pharmacokinetic parameters were determined by non-compartmental method using Phoenix WinNonlin Version 5.3 (Pharsight Corporation, Mountain View, CA).
A 10 μl aliquots from each sample were loaded to a LC-20AD nano HPLC system (Shimadzu Corporation, Columbia, MD, USA) coupled to LTQ XL Orbitrap mass spectrometer (Thermo Fisher Scientific) with the installed Xcalibur software (version 2.0.7, Thermo Fisher Scientific). Liquid chromatography was carried out on an in-house made nano-HPLC column (Polymicro Technologies Inc., Phoenix, AZ, USA) packed with reverse phase PolySulfoethyl A, 5μM, 200 Å (PolyLC Inc., Columbia, MD, USA). Mobile phase A was 0.1% formic acid in water and mobile phase B - 0.1% formic acid in acetonitrile. The elution was performed at a flow rate of 600 nl/min over 40 min using a multisegment linear gradient of mobile phase B as follows: 0–6.02 min, 1% B; 6.02–6.11 min, 1–2% B; 6.11–20 min, 2−80% B; 20–25 min, 80% B; 25–30 min, 80–85% B; 30–31 min, […]; 31–40 min, 2% B (v/v). The Orbitrap was operated under data-dependent acquisition mode. The spray voltage, capillary temperature and capillary voltage were set to 2.0 kV, 200 °C, and 39.5 V, respectively. Full-scan mass spectra were acquired in Orbitrap over 150−1500 m/z with a resolution of 30 000, followed by MS^n scans by CID activation mode. The precursor ions were fragmented with collision energy of 18 with activation Q of 0.25 and an activation time of 30 ms. Dynamic exclusion was enabled with a repeat count of 2, a repeat duration of 15 s, exclusion duration of 20 s, an exclusion list size of 50. The mass spectrometer was also operated in NL scan of m/z 18.01, 45.05, 71.03 and 72.02 and MRM mode. The MRM transitions were controlled by a segmented program in order to short the scan cycle and increase sensitivity.

[2] = molecular target: T1, Recombinant PP1 (human PP1α residues 7–300) (Homo sapiens, UniProt P62136); assay: Surface plasmon resonance direct binding to immobilized PP1; settings: SPR; for PP1 WT KD (M): 1:1 binding model, 25°C
T1 construct: human PP1α (residues 7–300); His; made in house; host or cells: BL21 (DE3) Escherichia coli, co-expressed with GroEL/GroES chaperones
Experimental: PP1 was purified as previously described. BL21 (DE3) Escherichia coli cells (Invitrogen, Carlsbad, CA, USA) were -transformed with a vector expressing human PP1α (residues 7–300) and pGR07, which expresses GroEL/[…] chaperones (both gifts from Dr Mathieu Bollen and Monique Beullens, KU Leuven, Belgium). The cells were grown in media supplemented with 1 mM MnCl2 at 30°C to an A600 =0.5. Arabinose (2 g per L) was added to induce expression of the GroEL/GroES chaperones. When A600 =1 was reached, the cells were transferred to 10°C and PP1 expression was induced with 0.1 mM Isopropyl β-D-1-thiogalactopyranoside for 20 hrs. Harvested cells were lysed using sonication in a solution containing in 50 mM Tris-HCl (pH 8.0), 5 mM imidazole, 700 mM NaCl, 1 mM MnCl2, 0.1% Triton X-100 (v/v) and protease inhibitors. His-tagged PP1 was purified using a Ni-NTA IMAC column (Qiagen, Valencia, CA, USA). Purified PP1 was dialyzed and stored at −70°C in 50 mM Tris-HCl (pH 8.0), 5 mM imidazole, 700 mM NaCl and 1 mM MnCl2. PP1 activity was then assayed as previously described.
The SPR measurements were conducted on Biacore T200 instrument (GE Healthcare, Piscataway, NJ) at 25°C. Recombinant PP1 was immobilized on a CM5 chip by amine coupling (GE Healthcare). PP1 (200 nM) was captured on flow cell 2 in 10 mM acetate buffer, pH 5.0, supplemented with 2 mM MnCl2. […] Flow cell 1 was used as a reference surface to subtract background signal. Also injections of the buffer alone were used to provide double reference subtraction. […] For binding and kinetics experiments, all compounds were diluted in the running buffer, at 40 μM, 20 μM, 10 μM, 5 μM, 2.5 μM, 1.25 μM and 0 μM and then passed over the two flow cells at a flow rate of 100 μl/min for 60 sec. The number of response units was recorded after the subtraction of the reference flow cell's value (Fc2-1). Two repetitions were performed for each injection. Data were analyzed using the BiaEvaluation software of Biacore with a 1:1 binding model. […] All the small molecular weight compounds were used at 1 μM.

AUC(0-t) [1] [µM·h]	MRT last [1] [h]	half-life [1] [h]	Cmax [1] [µM]	Tmax [1] [h]	Compound	HIV-1 env mRNA expression (HIV-1 env and gag mRNA)	HIV-1 gag mRNA expression (HIV-1 env and gag mRNA)	other results
–	–	–	–	–	Cc1cn([C@H]2C[C@H](N=[N+]=[N-])[C@@H](CO)O2)c(=O)[nH]c1=O [AZT, azidothymidine, reference compound]	strong inhibition	strong inhibition	–
124	10.5	13.4	7.54	6	COc1ccc(/C=C2\CCCc3c2nc2ccccc2c3C(=O)OC(C)C(=O)O)cc1OC (centres unmarked) [DP1-07P1]	–	–	–
288	8.86	4.66	23.7	6	COc1ccc(/C=C2\CCCc3c2nc2ccccc2c3C(=O)O)cc1OC [DP1-07P2]	–	–	–
–	–	–	–	–	Nc1ccn([C@@H]2CS[C@H](CO)O2)c(=O)n1 [3TC, lamivudine, reference compound]	strong inhibition	strong inhibition	–
–	–	–	–	–	CC[C@H](C)[C@H](NC(=O)[C@H](Cc1ccccc1)NC(=O)[C@H](CS)NC(=O)[C@@H](NC(=O)[C@H](CCC(N)=O)NC(=O)[C@H](CS)NC(=O)[C@H](Cc1c[nH]cn1)NC(=O)[C@H](Cc1ccccc1)NC(=O)[C@H](CS)NC(=O)[C@H](CS)NC(=O)[C@H](CCCCN)NC(=O)[C@H](CCCCN)NC(=O)[C@H](CCCNC(=N)N)NC(=O)[C@H](CC(C)C)NC(=O)[C@@H]1CCCN1C(=O)[C@H](CO)NC(=O)[C@H](CO)NC(=O)[C@@H]1CCCN1C(=O)[C@H](Cc1ccccc1)NC(=O)[C@H](CCCCN)NC(=O)[C@H](Cc1ccc(O)cc1)NC(=O)[C@@H]1CCCN1C(=O)[C@H](COP(=O)(O)O)NC(=O)[C@H](CCCNC(=N)N)NC(=O)[C@@H]1CCCN1C(=O)[C@@H](NC(=O)[C@@H](N)Cc1c[nH]cn1)[C@@H](C)CC)C(C)C)C(=O)N[C@H](C(=O)N[C@@H](CCCCN)C(=O)O)[C@@H](C)O [pRb-Tat, reference compound]	–	–	times higher binding ability than 1E7-03, DP1 and DP3 [2]: 20-40 times
–	–	–	–	–	pRb-Tat mutant: mutant pRb-Tat peptide with QACA mutation in the RVxF motif (HIPRSPYKFPSSPLRKKCCFHCQACAITK) [reference compound]	–	–	PP1 WT KD (M) [2]: No binding; PP1 WT KD (M) ([2]; listed as mutant pRb-Tat): did not bind
